Measured values from patent US20240101548A1, “HYDROXAMATE COMPOUND, PREPARATION METHOD THEREFOR AND APPLICATION THEREOF” (SHENZHEN CHIPSCREEN BIOSCIENCES CO., LTD., priority 2020, published 2024).
Where two headings read alike, the source gives them in different places.

Tests used:
Assay type in all cases: cell-based, human
[1] = test system: EPO-induced JAK2 signal pathway; assay: EPO-induced proliferation of UT-7 cells (JAK2 signal); conditions: Homo sapiens, UT7; UT-7 cell proliferation, EPO 10 ng/mL, 72 hours; read-out: Inhibition activity IC50 on EPO-induced JAK2 signal pathway
Summary of the method: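 […] was derived from inhibition rates across doses, scaled between wells lacking compound and cytokine (0) and EPO without compound (100), using alamarBlue fluorescence at Ex530/Em590. Compound (final 0-10000 nM) and 10 ng/mL EPO were given to UT-7 cells at 15000 per well for 72 h at 37° C.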

[2] = test system: IL-2-induced JAK1/JAK3 signal pathway; assay: IL-2-induced proliferation of KHYG-1 cells (JAK1/JAK3 signal); conditions: Homo sapiens, read-out: Inhibition activity IC50 on IL-2-induced JAK1/JAK3 signal pathway
Summary of the method: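 Controls were wells lacking both compound and cytokine (0%) and compound-free IL-2 wells (100%). C50 was calculated from inhibition rates across doses.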

[3] = test system: IL-10-induced JAK1/TYK2 signal pathway; assay: IL-10-induced JAK1/TYK2 signal pathway STAT3-Luc reporter gene assay in U2OS cells; conditions: U2OS cells, STAT3-Luc reporter, IL-10 10 ng/mL, read-out: Half inhibition dose (IC50) on IL-10-induced JAK1/TYK2 signal pathway
Summary of the method: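 Luciferase read-out (560 nm) corrected by GFP signal (Ex485/Em520) gives IL-10 pathway activity, and IC50 is derived from inhibition rates. Cells were U2OS transfected with IL-10R1 plus STAT3-Luc reporter, pretreated 6 h with 0.1–300 nM compound, then stimulated 24 h with IL-10 at 10 ng/mL.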

[4] = KHYG-1 cell proliferation, IL-2 10 ng/mL, 72 hours

| IC50 [3] [µM] | IC50 ([3]; Homo sapiens, U2OS) [µM] | SMILES | IC50 [1] [µM] | IC50 [2, 4] [µM] | IC50 ([2]; KHYG-1, 72 h) [µM] | IC50 ([3]; Homo sapiens) [µM] |
| --- | --- | --- | --- | --- | --- | --- |
| 0.00252 | – | CCONC(=O)c1cnc(Nc2cccc(C)n2)cc1Nc1ccc(C2CC2)cc1N(C)S(C)(=O)=O [Example 146, 4-((4-cyclopropyl-2-(N-methylmethanesulfonamido)phenyl)amino)-N-ethoxy-6-((6-methylpyridin-2-yl)amino)nicotinamide] | > 10 | > 10 | – | – |
| – | 0.00207 | CCONC(=O)c1cnc(Nc2cccnn2)cc1Nc1ccc(Cl)cc1N(C)S(C)(=O)=O [Example 151, 4-((4-chloro-2-(N-methylmethanesulfonamido)phenyl)amino)-N-ethoxy-6-(pyridazin-3-ylamino)nicotinamide] | > 10 | > 10 | – | – |
| – | 0.00151 | CCONC(=O)c1cnc(Nc2cccnn2)cc1Nc1ccc(C2CC2)cc1N(C)S(C)(=O)=O [Example 153, 4-((4-cyclopropyl-2-(N-methylmethanesulfonamido)phenyl)amino)-N-ethoxy-6-(pyridazin-3-ylamino)nicotinamide] | > 10 | > 10 | – | – |
| – | 0.00152 | C#Cc1ccc(Nc2cc(Nc3ccc(C4CC4)cn3)ncc2C(=O)NOCC)c(N(C)S(C)(=O)=O)c1 [Example 154, 6-((5-cyclopropylpyridin-2-yl)amino)-N-ethoxy-4-((4-ethynyl-2-(N-methylmethanesulfonamido)phenyl)amino)nicotinamide] | > 10 | > 10 | – | – |
| – | 0.00179 | CCONC(=O)c1cnc(Nc2ccc(C3CC3)cn2)cc1Nc1ccc(OC)cc1N(C)S(C)(=O)=O [Example 155, 6-((5-cyclopropylpyridin-2-yl)amino)-N-ethoxy-4-((4-methoxy-2-(N-methylmethanesulfonamido)phenyl)amino)nicotinamide] | > 10 | > 10 | – | – |
| – | 0.001 | CCONC(=O)c1cnc(Nc2ncc(C)s2)cc1Nc1ccc(C2CC2)cc1N(C)S(C)(=O)=O [Example 156, 4-((4-cyclopropyl-2-(N-methylmethanesulfonamido)phenyl)amino)-N-ethoxy-6-((5-methylthiazol-2-yl)amino)nicotinamide] | > 10 | > 10 | – | – |
| – | 0.00149 | CCONC(=O)c1cnc(Nc2nc(C)cs2)cc1Nc1ccc(C2CC2)cc1N(C)S(C)(=O)=O [Example 157, 4-((4-cyclopropyl-2-(N-methylmethanesulfonamido)phenyl)amino)-N-ethoxy-6-((4-methylthiazol-2-yl)amino)nicotinamide] | > 10 | > 10 | – | – |
| – | 0.000907 | CCONC(=O)c1cnc(Nc2ccc(C)nn2)cc1Nc1ccc(C2CC2)cc1N(C)S(C)(=O)=O [Example 159, 4-((4-cyclopropyl-2-(N-methylmethanesulfonamido)phenyl)amino)-N-ethoxy-6-((6-methylpyridazin-3-yl)amino)nicotinamide] | > 10 | > 10 | – | – |
| – | 0.000442 | CCONC(=O)c1cnc(Nc2ccn(C)n2)cc1Nc1ccc(C2CC2)cc1N(C)S(C)(=O)=O [Example 160, 4-((4-cyclopropyl-2-(N-methylmethanesulfonamido)phenyl)amino)-N-ethoxy-6-((1-methyl-1H-pyrazol-3-yl)amino)nicotinamide] | > 10 | > 10 | – | – |
| – | 0.000438 | C#Cc1ccc(Nc2cc(Nc3ccccn3)ncc2C(=O)NOCC)c(N(C)S(C)(=O)=O)c1 [Example 162, N-ethoxy-4-((4-ethynyl-2-(N-methylmethanesulfonamido)phenyl)amino)-6-(pyridin-2-ylamino)nicotinamide] | > 10 | > 10 | – | – |
| – | 0.00151 | CCONC(=O)c1cnc(NC(=O)C2CC2)cc1Nc1cccc(-c2ncn(C)n2)c1OC [Example 166, 6-(cyclopropylcarboxamido)-N-ethoxy-4-((2-methoxy-3-(1-methyl-1H-1,2,4-triazol-3-yl)phenyl)amino)nicotinamide] | > 10 | > 10 | – | – |
| – | 0.00151 | CCONC(=O)c1cnc(Nc2cnccn2)cc1Nc1cc(F)c(C2CC2)cc1N(C)S(C)(=O)=O [Example 167, 4-((4-cyclopropyl-5-fluoro-2-(N-methylmethanesulfonamido)phenyl)amino)-N-ethoxy-6-(pyrazin-2-ylamino)nicotinamide] | > 10 | > 10 | – | – |
| – | 0.0015 | CCONC(=O)c1cnc(Nc2nc(C)cs2)cc1Nc1cc(F)c(C2CC2)cc1N(C)S(C)(=O)=O [Example 170, 4-((4-cyclopropyl-5-fluoro-2-(N-methylmethanesulfonamido)phenyl)amino)-N-ethoxy-6-((4-methylthiazol-2-yl)amino)nicotinamide] | > 10 | > 10 | – | – |
| – | 0.00154 | CCONC(=O)c1cnc(Nc2ccn(C)n2)cc1Nc1cc(F)c(C2CC2)cc1N(C)S(C)(=O)=O [Example 171, 4-((4-cyclopropyl-5-fluoro-2-(N-methylmethanesulfonamido)phenyl)amino)-N-ethoxy-6-((1-methyl-1H-pyrazol-3-yl)amino)nicotinamide] | > 10 | > 10 | – | – |
| – | – | CCONC(=O)c1cnc(Nc2cc(C)nc(C)n2)cc1Nc1ccccc1N(C)S(=O)(=O)C1CC1 [Example 173, 6-((2,6-dimethylpyrimidin-4-yl)amino)-N-ethoxy-4-((2-(N-methylcyclopropylsulfonamido)phenyl)amino)nicotinamide] | > 10 | – | > 10 | 0.000424 |
| – | 0.000784 | CCONC(=O)c1cnc(Nc2cc(C)nc(C)n2)cc1Nc1ccc(OC)cc1N(C)S(=O)(=O)C1CC1 [Example 174, 6-((2,6-dimethylpyrimidin-4-yl)amino)-N-ethoxy-4-((4-methoxy-2-(N-methylcyclopropylsulfonamido)phenyl)amino)nicotinamide] | > 10 | > 10 | – | – |
| – | 0.000839 | CCONC(=O)c1cnc(Nc2cc(C)nc(C)n2)cc1Nc1ccc(C)cc1N(C)S(=O)(=O)C1CC1 [Example 175] | > 10 | > 10 | – | – |
| – | 0.00232 | CCONC(=O)c1cnc(Nc2ccc(C)nn2)cc1Nc1cc(F)c(C2CC2)cc1N(C)S(C)(=O)=O [Example 176, 4-((4-cyclopropyl-5-fluoro-2-(N-methylmethanesulfonamido)phenyl)amino)-N-ethoxy-6-((6-methylpyridazin-3-yl)amino)nicotinamide] | > 10 | > 10 | – | – |
| – | 0.0016 | CCONC(=O)c1cnc(Nc2cc(C)nc(C)n2)cc1Nc1ccc(C#N)cc1N(C)S(C)(=O)=O [Example 177] | > 10 | > 10 | – | – |
| – | 0.00128 | CCONC(=O)c1cnc(Nc2cc(C)nc(C)n2)cc1Nc1ccc(OC(C)C)cc1N(C)S(C)(=O)=O [Example 178, 6-((2,6-dimethylpyrimidin-4-yl)amino)-N-ethoxy-4-((4-isopropoxy-2-(N-methylmethanesulfonamido)phenyl)amino)nicotinamide] | > 10 | > 10 | – | – |
| – | 0.00131 | CCONC(=O)c1cnc(Nc2ccnc(OC)n2)cc1Nc1ccc(C2CC2)cc1N(C)S(C)(=O)=O [Example 179, 4-((4-cyclopropyl-2-(N-methylmethanesulfonamido)phenyl)amino)-N-ethoxy-6-((2-methoxypyrimidin-4-yl)amino)nicotinamide] | > 10 | > 10 | – | – |
| – | – | CCONC(=O)c1cnc(Nc2cc(C)nc(C)n2)cc1Nc1ccc(CC)cc1N(C)S(C)(=O)=O [Example 180] | > 10 | > 10 | – | 0.00113 |
| – | 0.00159 | C#Cc1cc(N(C)S(C)(=O)=O)c(Nc2cc(Nc3cc(C)nc(C)n3)ncc2C(=O)NOCC)cc1F [Example 182] | > 10 | > 10 | – | – |
| – | 0.000796 | CCONC(=O)c1cnc(Nc2cc(C)nc(C)n2)cc1Nc1ccc(F)cc1N(C)S(=O)(=O)C1CC1 [Example 183] | > 10 | > 10 | – | – |
| – | 0.000821 | CCONC(=O)c1cnc(Nc2cc(C)nc(C)n2)cc1Nc1ccc(C2CC2)cc1N(C)S(=O)(=O)CC [Example 185] | > 10 | > 10 | – | – |
| – | 0.000906 | CCONC(=O)c1cnc(Nc2cc(C)nc(C)n2)cc1Nc1ccc(Cl)cc1N(C)S(=O)(=O)CC [Example 187, 4-((4-chloro-2-(N-methylethylsulfonamido)phenyl)amino)-6-((2,6-dimethylpyrimidin-4-yl)amino)-N-ethoxynicotinamide] | > 10 | > 10 | – | – |
| – | 0.00127 | CCONC(=O)c1cnc(Nc2ccnc(OC)n2)cc1Nc1cc(F)c(C2CC2)cc1N(C)S(C)(=O)=O [Example 188, 4-((4-cyclopropyl-5-fluoro-2-(N-methylmethanesulfonamido)phenyl)amino)-N-ethoxy-6-((2-methoxypyrimidin-4-yl)amino)nicotinamide] | > 10 | > 10 | – | – |
